We go through three compounds from US7625923B2, “Bicyclic modulators of androgen receptor function” (Bristol-Myers Squibb Company, priority 2004, dated 2009).

For assay [1], the target named is T1, androgen receptor (Rattus norvegicus, UniProt P15207).
T1 sequence (P15207 1-902): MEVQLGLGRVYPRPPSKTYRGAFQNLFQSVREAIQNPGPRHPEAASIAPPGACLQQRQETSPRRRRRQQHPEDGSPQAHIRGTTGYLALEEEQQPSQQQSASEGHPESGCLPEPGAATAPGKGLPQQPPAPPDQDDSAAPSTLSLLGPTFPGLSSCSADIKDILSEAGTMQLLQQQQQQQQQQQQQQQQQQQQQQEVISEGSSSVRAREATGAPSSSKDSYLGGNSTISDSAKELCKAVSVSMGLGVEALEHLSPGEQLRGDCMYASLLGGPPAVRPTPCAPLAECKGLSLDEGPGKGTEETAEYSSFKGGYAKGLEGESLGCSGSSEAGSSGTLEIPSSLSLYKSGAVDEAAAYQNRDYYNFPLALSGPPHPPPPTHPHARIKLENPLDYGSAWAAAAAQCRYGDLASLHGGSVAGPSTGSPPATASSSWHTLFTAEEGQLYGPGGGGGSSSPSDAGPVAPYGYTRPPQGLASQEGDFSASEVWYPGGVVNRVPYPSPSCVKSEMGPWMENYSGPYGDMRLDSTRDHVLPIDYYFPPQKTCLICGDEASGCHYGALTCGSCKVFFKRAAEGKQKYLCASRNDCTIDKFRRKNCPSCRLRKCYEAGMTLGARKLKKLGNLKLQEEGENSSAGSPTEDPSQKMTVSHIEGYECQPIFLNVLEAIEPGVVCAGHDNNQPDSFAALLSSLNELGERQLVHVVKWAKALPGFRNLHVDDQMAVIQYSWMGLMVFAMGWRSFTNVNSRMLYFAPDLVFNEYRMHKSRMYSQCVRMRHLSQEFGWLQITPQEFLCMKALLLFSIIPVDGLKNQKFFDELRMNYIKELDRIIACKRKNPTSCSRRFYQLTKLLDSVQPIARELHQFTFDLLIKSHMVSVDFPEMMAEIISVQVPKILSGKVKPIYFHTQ
Particulars: castrated rats.
From the text: The basis of this assay lies in the well-defined action of androgenic agents on the maintenance and growth of muscle tissues and sexual accessory organs in animals and man. […] As described above, the effects of androgens on maintenance of male sexual accessory organs, such as the prostate and seminal vesicles, is well described. Castration results in rapid involution and atrophy of the prostate and seminal vesicles. This effect can be reversed by exogenous addition of androgens. Since both the levator ani muscle and the male sex organs are the tissues most responsive to the effects of androgenic agents, this model is used to determine the androgen dependent reversal of atrophy in the levator ani muscle and the sex accessory organs in immature castrated rats. Sexually mature rats (200-250 g, 6-8 weeks-old, Sprague-Dawley, Harlan) were acquired castrated from the vendor (Taconic). The rats were divided into groups and treated daily for 7 to 14 days with one of the following: • 1. Control vehicle • 2. […] TP plus Bicalutamide (administered p.o. in PEGTW, QD), a recognized antiandrogen, as a reference compound. • 4.
At the end of the 7-14-day treatment, the animals were sacrificed by carbon dioxide, and the levator ani, seminal vesicle and ventral prostate weighed. […]

In assay [2] the test system is wild type AR (MDA 453 cells). Particulars: read-out: Kd for [3H]-DHT, Scatchard analysis, 4 h at 37° C. On the procedure:
For the whole-cell binding assay, human LNCaP cells (T877A mutant AR) or MDA 453 (wild type AR) in 96-well microtiter plates containing RPMI 1640 or DMEM supplemented with 10% charcoal stripped CA-FBS (Cocaleco Biologicals) respectively, were incubated at 37° C. to remove any endogenous ligand that might be complexed with the receptor in the cells.
For the saturation analysis, the difference between the total binding and the non-specific binding, was defined as specific binding. […] See e.g. D. Rodbard, Mathematics and statistics of ligand assays: an illustrated guide: In: J. Langon and J. J. Clapp, eds., Ligand Assay, Masson Publishing U.S.A., Inc., New York, pp. 45-99, (1981), the disclosure of which is herein incorporated by reference.
Two replicates were used for each sample.
[formula] After correcting for non-specific binding, IC50 values were determined. […] C2C12 Mouse Myoblast Transactivation Assay

In assay [3] the target is glucocorticoid receptor (endogenous, A549 cells) (Homo sapiens, UniProt P04150). Particulars: concentration ≦10 μM; 10 ng/mL PMA; 7 h at 37° C. On the procedure: The AP-1 assay is a cell-based luciferase reporter assay. A549 cells, which contain endogenous glucocorticoid receptor, were stably transfected with an AP-1 DNA binding site attached to the luciferase gene. Cells are then grown in RPMI+10% fetal calf serum (charcoal-treated)+Penicillin/Streptomycin with 0.5 mg/mL geneticin. Cells are plated the day before the assay at approximately 40000 cells/well. On assay day, the media is removed by aspiration and 20 μL assay buffer (RPMI without phenol red+10% FCS (charcoal-treated)+Pen/Strep) is added to each well. At this point either 20 μL assay buffer (control experiments), the compounds of the present invention (“test compounds”) (dissolved in DMSO and added at varying concentrations) or dexamethasome (100 nM in DMSO, positive control) are added to each well. The plates are then pre-incubated for 15 min at 37° C., followed by stimulation of the cells with 10 ng/mL PMA. The plates are then incubated for 7 h at 37° C. after which 40 μL luciferase substrate reagent is added to each well. Activity is measured by analysis in a luminometer as compared to control experiments treated with buffer or dexamethasome.
Chain of glucocorticoid receptor (endogenous, A549 cells) (P04150 whole entry): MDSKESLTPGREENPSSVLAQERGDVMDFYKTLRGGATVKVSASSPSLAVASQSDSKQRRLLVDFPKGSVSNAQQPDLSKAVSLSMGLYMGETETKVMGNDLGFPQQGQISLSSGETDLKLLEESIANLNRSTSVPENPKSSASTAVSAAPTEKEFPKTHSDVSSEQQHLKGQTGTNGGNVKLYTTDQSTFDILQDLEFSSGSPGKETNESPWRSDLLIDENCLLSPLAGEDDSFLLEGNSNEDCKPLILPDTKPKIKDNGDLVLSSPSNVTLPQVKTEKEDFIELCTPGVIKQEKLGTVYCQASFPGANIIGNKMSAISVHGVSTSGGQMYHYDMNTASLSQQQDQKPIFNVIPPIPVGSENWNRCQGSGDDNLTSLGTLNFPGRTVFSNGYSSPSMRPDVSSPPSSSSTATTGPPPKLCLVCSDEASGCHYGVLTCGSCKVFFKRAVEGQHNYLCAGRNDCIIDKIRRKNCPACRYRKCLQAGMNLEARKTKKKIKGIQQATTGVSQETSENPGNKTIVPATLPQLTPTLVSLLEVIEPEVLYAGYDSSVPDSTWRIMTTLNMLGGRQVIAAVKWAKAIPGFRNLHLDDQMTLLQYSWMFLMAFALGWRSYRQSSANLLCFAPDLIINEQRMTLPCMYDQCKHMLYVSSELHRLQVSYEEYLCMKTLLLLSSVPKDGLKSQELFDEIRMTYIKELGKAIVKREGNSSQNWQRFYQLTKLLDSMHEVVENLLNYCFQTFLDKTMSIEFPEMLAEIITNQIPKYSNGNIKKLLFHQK

Consider `CCC(=O)O[C@H]1CC[C@H]2[C@@H]3CCC4=CC(=O)CC[C@]4(C)[C@H]3CC[C@]12C` [testosterone propionate, Testosterone Propionate], for which the “EC50 (increase in organ weight)” value in assay [1] is listed as around 0.03 mg.

In general, Kd refers to the constant that tells how readily two partners part at equilibrium. In the case of “tritiated dihydrotestosterone [[^3H]-DHT]”, the Kd in assay [2] was determined as 0.7 nM.

Take `C[C@@H]1C[C@H]2[C@@H]3CCC4=CC(=O)C=C[C@]4(C)[C@@]3(F)[C@@H](O)C[C@]2(C)[C@@]1(O)C(=O)CO` [dexamethasone]: the “% inhibition of the AP-1 reporter system vs buffer control with PMA alone” value in assay [3] was determined as 65%.
